For 47 compounds, melting point results are on record in patent publication US7767665B2, “1,3-benzothiazinone derivatives and use thereof” (Takeda Pharmaceutical Company Limited, priority 2001, dated 2010).

Each structure is given as a SMILES string.

Consider `O=c1nc(-c2ccc(NCc3ccccc3)nc2)sc2ccccc12` [Example 32, 2-[6-(Benzylamino)-3-pyridyl]-4H-1,3-benzothiazine-4-one], for which the melting point (usually the temperature of the solid-liquid transition) is 194.3 to 196.2 °C.

`O=c1nc(-c2ccc(N3CCCC3)nc2)sc2ccccc12` [Example 33, 2-[6-(1-Pyrrolidinyl)-3-pyridyl]-4H-1,3-benzothiazine-4-one] returned a melting point of 221 to 223.1 °C.

As to `O=c1nc(-c2ccc(N3CCCCC3)nc2)sc2ccccc12` [Example 34, 2-[6-(1-Piperidino)-3-pyridyl]-4H-1,3-benzothiazine-4-one], the melting point is 191.2 to 191.7 °C.

In turn, `O=c1nc(-c2ccc(N3CCOCC3)nc2)sc2ccccc12` [Example 35, 2-[6-(4-Morpholino)-3-pyridyl]-4H-1,3-benzothiazine-4-one] showed a melting point of 232.6 to 234.4 °C.

For the compound `O=c1nc(-c2ccc(Sc3ccc(Cl)cc3)nc2)sc2ccccc12` [Example 36, 2-{6-[(4-Chlorophenyl)thio]-3-pyridyl}-4H-1,3-benzothiazine-4-one], the melting point lay within 221.5 to 222 °C.

With `O=c1nc(-c2cccc(Oc3ccccc3)n2)sc2ccccc12` [Example 41, 2-(6-Phenoxy-2-pyridyl)-4H-1,3-benzothiazine-4-one], the melting point was 160.8 to 161.3 °C.

In the case of `O=c1nc(-c2cccc(N3CCCCC3)n2)sc2ccccc12` [Example 42, 2-[6-(1-Piperidyl)-2-pyridyl]-4H-1,3-benzothiazine-4-one], the melting point is 178.7 °C (dec.).

Regarding `C[S+]([O-])c1cccc(-c2nc(=O)c3ccccc3s2)n1` (centres unmarked) [Example 44, 2-(6-Methylsulfinyl-2-pyridyl)-4H-1,3-benzothiazine-4-one], the melting point was 256.5 °C (dec.).

Turning to `CS(=O)(=O)c1cccc(-c2nc(=O)c3ccccc3s2)n1` [Example 45, 2-(6-Methylsulfonyl-2-pyridyl)-4H-1,3-benzothiazine-4-one], the melting point is 238.2 to 239.5 °C (dec.).

As for `Cc1ccc(Sc2cccc(-c3nc(=O)c4ccccc4s3)n2)cc1` [Example 46, 2-{6-[(4-methylphenyl)thio]-2-pyridyl}-4H-1,3-benzothiazine-4-one], the melting point is 176.9 to 178.4 °C.

`CCCSc1cccc(-c2nc(=O)c3ccccc3s2)n1` [Example 59, 2-(6-Propylthio-2-pyridyl)-4H-1,3-benzothiazine-4-one] registered a melting point of 124.5 to 125.1 °C.

Take `O=c1nc(-c2cccc(N3CCN(c4ccccc4)CC3)n2)sc2ccccc12` [Example 62, 2-[6-(4-Phenyl-1-piperazinyl)-2-pyridyl]-4H-1,3-benzothiazine-4-one]: the melting point was 245.8 °C (dec.).

`CC(C)(C)OC(=O)CCOCCCc1cccc(-c2nc(=O)c3ccccc3s2)n1` [Example 66, tert-Butyl 3-{3-[6-(4-oxo-4H-1,3-benzothiazin-2-yl)-2-pyridyl]propoxy}propanoate] showed a melting point of 71 to 71.9 °C.

As for `O=c1nc(-c2ccnc(OCc3ccccc3)c2)sc2ccccc12` [Example 69, 2-(2-Benzyloxy-4-pyridyl)-4H-1,3-benzothiazine-4-one], the melting point is 116 to 116.5 °C.

In turn, `CN(Cc1ccccc1)c1cc(-c2nc(=O)c3ccccc3s2)ccn1` [Example 71, 2-[2-(N-Benzyl-N-methylamino)-4-pyridyl]-4H-1,3-benzothiazine-4-one] showed a melting point of 145.9 to 146.6 °C.

For `CCCCCCNc1cc(-c2nc(=O)c3ccccc3s2)ccn1` [Example 72, 2-[2-(Hexylamino)-4-pyridyl]-4H-1,3-benzothiazine-4-one], the melting point lay within 133.8 to 134.6 °C.

Consider `O=c1nc(-c2ccnc(N3CCN(c4ccc(F)cc4)CC3)c2)sc2ccccc12` [Example 74, 2-{2-[4-(4-Fluorophenyl)-1-piperazinyl]-4-pyridyl}-4H-1,3-benzothiazine-4-one], for which the melting point fell in the range of 233 to 233.6 °C.

For the compound `O=c1nc(-c2ccnc(-c3ccccc3)c2)sc2ccccc12` [Example 75, 2-(2-Phenyl-4-pyridyl)-4H-1,3-benzothiazine-4-one], the melting point is 162.7 to 163 °C.

The compound `O=c1nc(-c2ccnc(-c3cccs3)c2)sc2ccccc12` [Example 75, 2-[2-(2-Thienyl)-4-pyridyl]-4H-1,3-benzothiazine-4-one] displayed a melting point of 160.4 to 161.1 °C.

As for `CC(C)(C)OC(=O)CCc1cccc(-c2nc(=O)c3ccccc3s2)n1` [Example 78, tert-Butyl 3-[6-(4-oxo-4H-1,3-benzothiazin-2-yl)-2-pyridyl]propanoate], the melting point lay in the range of 165.8 to 166 °C.

Consider `O=c1nc(-c2ccccn2)sc2ccc(O)cc12` [Example 84, 6-Hydroxy-2-(2-pyridyl)-4H-1,3-benzothiazine-4-one], for which the melting point fell in the range of 313.3 to 315 °C.

With `COC(CCCNc1ccc(-c2nc(=O)c3ccccc3s2)cn1)OC` [Example 86, 2-[6-[(4,4-Dimethoxybutyl)amino]-3-pyridyl]-4H-1,3-benzothiazine-4-one], the melting point was 157.2 to 158.5 °C.

`Cc1cc(C)c2sc(-c3cccc(CCCOCCC(=O)OC(C)(C)C)n3)nc(=O)c2c1` [Example 87] came in with a melting point of 105.3 to 107.3 °C.

Regarding `Cc1cc(C)c2sc(-c3cccc(CCCOCCC(=O)O)n3)nc(=O)c2c1` [Example 88], the melting point was 156.5 to 157.1 °C.

As to `CSc1ccc(Oc2ccc(-c3nc(=O)c4ccccc4s3)cn2)cc1` [Example 89], the melting point was in the range of 140.5 to 140.6 °C.

`Cc1ccc(Sc2ccc(-c3nc(=O)c4ccccc4s3)cn2)cc1` [Example 90, 2-[2-(4-Methyl)phenylthio-3-pyridyl]-4H-1,3-benzothiazine-4-one] had a melting point of 172.6 to 172.8 °C.

Regarding `CCOc1ccc(-c2nc(=O)c3ccccc3s2)cn1` [Example 91, 2-(6-Ethoxy-3-pyridyl)-4H-1,3-benzothiazine-4-one], the melting point lay in the range of 152.3 to 156.2 °C.

`CC(C)CCSc1ccc(-c2nc(=O)c3ccccc3s2)cn1` [Example 92] showed a melting point of 92.8 to 93.1 °C.

For `CC(C)Oc1ccc(-c2nc(=O)c3ccccc3s2)cn1` [Example 93, 2-[6-Isopropoxy-3-pyridyl]-4H-1,3-benzothiazine-4-one], the melting point was 109.7 to 110.4 °C.

The compound `CCOCCOc1ccc(-c2nc(=O)c3ccccc3s2)cn1` [Example 94, 2-[6-(2-Ethoxyethoxy)-3-pyridyl]-4H-1,3-benzothiazine-4-one] yielded a melting point of 93.6 to 94.9 °C.

As for `O=C1c2ccccc2C(=O)N1CCOc1ccc(-c2nc(=O)c3ccccc3s2)cn1` [Example 95], the melting point lay in the range of 212.4 to 212.6 °C.

The compound `CCOC(=O)CCCCCOc1ccc(-c2nc(=O)c3ccccc3s2)cn1` [Example 96, Ethyl 6-{[5-(4-oxo-4H-1,3-benzothiazin-2-yl)-2-pyridyl]oxy}hexanoate] came in with a melting point of 73.6 to 73.9 °C.

The compound `CC(C)(C)OC(=O)CCOCCCc1ccnc(-c2nc(=O)c3ccccc3s2)c1` [Example 101, tert-Butyl 3-[3-[2-(4-oxo-4H-1,3-benzothiazin-2-yl)-4-pyridyl]propoxy]propanoate] displayed a melting point of 81.1 to 82.2 °C.

`CN(C(=O)OC(C)(C)C)c1cccc(-c2nc(=O)c3ccccc3s2)n1` [Example 108, tert-Butyl methyl[6-(4-oxo-4H-1,3-benzothiazin-2-yl)-2-pyridyl]carbamate] registered a melting point of 195.6 to 196.3 °C.

Regarding `CNc1cccc(-c2nc(=O)c3ccccc3s2)n1` [Example 109, 2-(6-Methylamino-2-pyridyl)-4H-1,3-benzothiazine-4-one], the melting point lay in the range of 206.9 to 208 °C.

Compound `CC(=O)N(C)c1cccc(-c2nc(=O)c3ccccc3s2)n1` [Example 110, N-Methyl-N-[6-(4-oxo-4H-1,3-benzothiazin-2-yl)-2-pyridyl]acetamide] came in with a melting point of 218.3 to 220.3 °C.

On to `CCC(=O)N(C)c1cccc(-c2nc(=O)c3ccccc3s2)n1` [Example 114, N-Methyl-N-[6-(4-oxo-4H-1,3-benzothiazin-2-yl)-2-pyridyl]propanamide], for which the melting point was in the range of 200.6 to 201.2 °C.

`CCCCOc1ccc2sc(-c3ccccn3)nc(=O)c2c1` [Example 116, 6-Butoxy-2-(2-pyridyl)-4H-1,3-benzothiazine-4-one] returned a melting point of 160.9 to 161.8 °C.

The compound `CC(C)COc1ccc2sc(-c3ccccn3)nc(=O)c2c1` [Example 117, 6-Isobutoxy-2-(2-pyridyl)-4H-1,3-benzothiazine-4-one] had a melting point of 135.5 to 136.5 °C.

`O=c1nc(-c2ccccn2)sc2ccc(OCCCO)cc12` [Example 118, 6-(3-Hydroxypropoxy)-2-(2-pyridyl)-4H-1,3-benzothiazine-4-one]: the melting point lay within 196.6 to 197.7 °C.

For the compound `O=c1nc(-c2ccccn2)sc2ccc(OCCCCCCO)cc12` [Example 119, 6-(6-Hydroxyhexyloxy)-2-(2-pyridyl)-4H-1,3-benzothiazine-4-one], the melting point was in the range of 135.6 to 137 °C.

Compound `O=c1nc(-c2ccccn2)sc2ccc(OCCCc3ccccc3)cc12` [Example 120, 6-(3-Phenylpropoxy)-2-(2-pyridyl)-4H-1,3-benzothiazine-4-one] registered a melting point of 170 to 170.3 °C.

In turn, `O=c1nc(-c2ccccn2)sc2ccc(OCc3ccccc3)cc12` [Example 121, 6-(Benzyloxy)-2-(2-pyridyl)-4H-1,3-benzothiazine-4-one] showed a melting point of 198 to 198.8 °C.

Regarding `CC(C)(C)OC(=O)COc1ccc2sc(-c3ccccn3)nc(=O)c2c1` [Example 122, tert-Butyl 2-[[4-oxo-2-(2-pyridyl)-4H-1,3-benzothiazin-6-yl]oxy]acetate], the melting point was 183 to 184.1 °C.

As for `O=C(O)COc1ccc2sc(-c3ccccn3)nc(=O)c2c1` [Example 123, 2-[[4-Oxo-2-(2-pyridyl)-4H-1,3-benzothiazin-6-yl]oxy]acetic acid], the melting point was 250 °C (dec.).

`CC(C)(C)OC(=O)CCCCCOc1ccc2sc(-c3ccccn3)nc(=O)c2c1` [Example 124, tert-Butyl 6-[[4-oxo-2-(2-pyridyl)-4H-1,3-benzothiazin-6-yl]oxy]hexanoate] came in with a melting point of 101.2 to 102.4 °C.

In turn, `O=C(O)CCCCCOc1ccc2sc(-c3ccccn3)nc(=O)c2c1` [Example 125, 6-[[4-Oxo-2-(2-pyridyl)-4H-1,3-benzothiazin-6-yl]oxy]hexanoic acid] had a melting point of 205.4 to 206.3 °C.
